According to article PMC8253220, “Molecular design, synthesis and in vitro biological evaluation of thienopyrimidine–hydroxamic acids as chimeric kinase HDAC inhibitors: a challenging approach to combat cancer” (Journal of Enzyme Inhibition and Medicinal Chemistry, 2021):
“And” between values parts separate entries of the source, which are not always exact repeats. Equal values may be shown once.

Assays:
Assay in all cases: NCI one-dose screen
Format in all cases: cell-based, human
HCT-15 = details: Colon HCT-15, 10 µM single dose
Method in brief: (§1)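 One concentration (10 μM) applied to each line of the full NCI-60 panel; percent growth compared against untreated cells.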

NCI/ADR-RES = details: Ovarian NCI/ADR-RES, 10 µM single dose
Method in brief: as §1

NCI-H23 = details: NSCLC NCI-H23, 10 µM single dose
Method in brief: (§2)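 Treated at 10 μM (single dose) within the NCI full 60-line panel. Inhibition % computed from growth against untreated control.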

HT29 = details: Colon HT29, 10 µM single dose
Method in brief: as §1

HCT-116 = details: Colon HCT-116, 10 µM single dose
Method in brief: as §1

MOLT-4 = details: Leukemia MOLT-4, 10 µM single dose
Method in brief: as §2

U251 = details: CNS U251, 10 µM single dose
Method in brief: (§3)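 Single dose of 10 μM tested across the full NCI-60 cell panel. Values are percent growth inhibition relative to untreated control cells, following standard NCI methodology.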

CAKI-1 = details: Renal CAKI-1, 10 µM single dose
Method in brief: as §1

HL-60(TB) = details: Leukemia HL-60(TB), 10 µM single dose
Method in brief: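 At 10 μM, a single concentration, compounds were evaluated for antiproliferative effect in the NCI 60-line screen, with growth expressed relative to untreated control cells.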

M14 = details: Melanoma M14, 10 µM single dose
Method in brief: as §1

UACC-62 = details: Melanoma UACC-62, 10 µM single dose
Method in brief: as §1

SNB-19 = details: CNS SNB-19, 10 µM single dose
Method in brief: (§4)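 Following the standard NCI-60 protocol, compounds were applied once at 10 μM to all 60 cancer lines. Read-out is percent growth versus untreated controls, expressed as inhibition %.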

SK-MEL-28 = details: Melanoma SK-MEL-28, 10 µM single dose
Method in brief: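 Single 10 μM dose, NCI-60 panel; read-out = % growth vs untreated controls → % inhibition.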

NCI-H322M = details: NSCLC NCI-H322M, 10 µM single dose
Method in brief: as §1

SK-MEL-2 = details: Melanoma SK-MEL-2, 10 µM single dose
Method in brief: as §4

KM12 = details: Colon KM12, 10 µM single dose
Method in brief: as §2

786-0 = details: Renal 786-0, 10 µM single dose
Method in brief: as §1

OVCAR-4 = details: Ovarian OVCAR-4, 10 µM single dose
Method in brief: as §1

NCI-H522 = details: for Growth Percent: NSCLC NCI-H522, 10 µM single dose
Method in brief: as §3

OVCAR-8 = details: Ovarian OVCAR-8, 10 µM single dose
Method in brief: as §1

SF-268 = details: CNS SF-268, 10 µM single dose
Method in brief: as §2

OVCAR-3 = details: Ovarian OVCAR-3, 10 µM single dose
Method in brief: as §1

SNB-75 = details: for Growth Percent: CNS SNB-75, 10 µM single dose
Method in brief: as §3

UO-31 = details: for Growth Percent: Renal UO-31, 10 µM single dose
Method in brief: as §3

BT-549 = details: Breast BT-549, 10 µM single dose
Method in brief: as §1

SF-295 = details: CNS SF-295, 10 µM single dose
Method in brief: as §1

A549/ATCC = details: NSCLC A549/ATCC, 10 µM single dose
Method in brief: as §1

DU-145 = details: Prostate DU-145, 10 µM single dose
Method in brief: as §1

RPMI-8226 = details: Leukemia RPMI-8226, 10 µM single dose
Method in brief: as §1

HOP-92 = details: NSCLC HOP-92, 10 µM single dose
Method in brief: as §1

SF-539 = details: CNS SF-539, 10 µM single dose
Method in brief: as §2

HS 578T = details: Breast HS 578T, 10 µM single dose
Method in brief: as §1

MDA-MB-435 = details: Melanoma MDA-MB-435, 10 µM single dose
Method in brief: as §1

CCRF-CEM = details: Leukemia CCRF-CEM, 10 µM single dose
Method in brief: as §1

SR = details: Leukemia SR, 10 µM single dose
Method in brief: as §1

TK-10 = details: Renal TK-10, 10 µM single dose
Method in brief: as §1

| SMILES | Growth Percent (HCT-15) | Growth Percent (NCI/ADR-RES) | Growth Percent (NCI-H23) | Growth Percent (HT29) | Growth Percent (HCT-116) | Growth Percent (MOLT-4) | Growth Percent (U251) | Growth Percent (CAKI-1) | Growth Percent (HL-60(TB)) | Growth Percent (M14) | Growth Percent (UACC-62) | Growth Percent (SNB-19) | Growth Percent (SK-MEL-28) | Growth Percent (NCI-H322M) | Growth Percent (SK-MEL-2) | Growth Percent (KM12) | Growth Percent (786-0) | Growth Percent (OVCAR-4) | Growth Percent (NCI-H522) | Growth Percent (OVCAR-8) | further results |
| --- | --- | --- | --- | --- | --- | --- | --- | --- | --- | --- | --- | --- | --- | --- | --- | --- | --- | --- | --- | --- | --- |
| Cc1c(C(=O)NCCCC(=O)NO)sc2ncnc(Nc3ccccc3)c12 [Compound 20b, N-(4-(hydroxyamino)-4-oxobutyl)-5-methyl-4-(phenylamino)thieno[2,3-d]pyrimidine-6-carboxamide] | 100.2% and 100.23% | 100.6% and 100.67% | 99.6% and 99.63% | 102.3% and 102.36% | 104.9% and 104.93% | 109.4% and 109.45% | 98.2% and 98.23% | 96.9% and 96.93% | 104.1% and 104.16% | 112.3% and 112.35% | 96.8% and 96.85% | 97.5% and 97.59% | 115.5% and 115.55% | 107.3% and 107.33% | 102.9% | 101.4% and 101.41% | 113.5% and 113.55% | 105.4% and 105.47% | 89.7% and 89.77% | 98.7% | Growth Percent (SF-268): 97.1% and 97.16%; Growth Percent (OVCAR-3): 109.4% and 109.49%; Growth Percent (SNB-75): 95.6%; Growth Percent (UO-31): 88.2% and 88.29%; Growth Percent (BT-549): 128.8% and 128.88%; Growth Percent (SF-295): 90.6% and 90.64%; Growth Percent (A549/ATCC): 98.8% and 98.87%; Growth Percent (DU-145): 111% and 111.21%; Growth Percent (RPMI-8226): 102.2%; Growth Percent (HOP-92): 110.5% and 110.53%; Growth Percent (SF-539): 96.9% and 96.91%; Growth Percent (HS 578T): 102.2% and 102.24%; Growth Percent (MDA-MB-435): 103.3% and 103.32%; Growth Percent (CCRF-CEM): 102.7% and 102.73%; Growth Percent (SR): 99.2% and 99.22%; Growth Percent (TK-10): 111.2% and 111.26% |
| Cc1c(C(=O)NO)sc2ncnc(Nc3ccc(Cl)cc3)c12 [Compound 15c, 4–(4-chlorophenylamino)-N-hydroxy-5-methylthieno[2,3-d]pyrimidine-6-carboxamide] | 101.7% and 101.72% | 102.1% and 102.16% | 91.8% and 91.83% | 101.8% and 101.84% | 100.9% and 100.92% | 102.3% and 102.36% | 100.9% and 100.96% | 86.4% and 86.45% | 104.9% and 104.93% | 107.8% and 107.86% | 92.4% and 92.45% | 94.8% and 94.85% | 110.6% and 110.64% | 97.2% and 97.24% | 94.5% and 94.54% | 100.9% and 100.92% | 108.7% and 108.78% | 106.3% and 106.34% | 74.5% and 74.57% | 102.0% and 102.02% | inhibition at 10 µM (NCI-H522; Homo sapiens, NSCLC NCI-H522, 10 μM): 25.4%; Growth Percent (SF-268): 94.8% and 94.84%; Growth Percent (OVCAR-3): 98.9% and 98.94%; Growth Percent (SNB-75): 79.5% and 79.59%; inhibition at 10 µM (SNB-75; Homo sapiens, CNS SNB-75, 10 μM): 20.4%; inhibition at 10 µM (UO-31; Homo sapiens, renal UO-31, 10 μM): 28.8%; Growth Percent (UO-31): 71.2%; Growth Percent (BT-549): 116.4% and 116.44%; Growth Percent (SF-295): 102.7% and 102.79%; Growth Percent (A549/ATCC): 105.8% and 105.88%; Growth Percent (DU-145): 108.8% and 108.86%; Growth Percent (RPMI-8226): 104.3% and 104.38%; Growth Percent (HOP-92): 101.5% and 101.51%; Growth Percent (SF-539): 104.0%; Growth Percent (HS 578T): 102.5% and 102.54%; Growth Percent (MDA-MB-435): 102.4% and 102.42%; Growth Percent (CCRF-CEM): 103.4% and 103.44%; Growth Percent (SR): 102.7% and 102.79%; Growth Percent (TK-10): 154.5% and 154.58% |
